This passage reports GI50 results from ChEMBL document CHEMBL4359903, “1,2,4-Oxadiazole derivatives targeting EGFR and c-Met degradation in TKI resistant NSCLC” (Eur J Med Chem, 2019).

One experiment has as its system MDA-MB-231. Put plainly: Growth inhibition of human MDA-MB-231 cells incubated for 3 days by CellTiter 96 aqueous nonradioactive cell proliferation assay. It counts as functional. As to conditions: MDA-MB-231, 72 h.
A further experiment has as its system NCI-H1975. Nature of the experiment: Growth inhibition of human NCI-H1975 cells incubated for 3 days by CellTiter 96 aqueous nonradioactive cell proliferation assay. Conditions: NCI-H1975, 72 h. In kind it is functional.

Structures are written as SMILES.

`CC(C)c1cc(C(=O)N2CCc3sccc3C2)c(O)cc1O`: the GI50 was found to be 0.478 µM with MDA-MB-231 and 1.67 µM in the experiment on NCI-H1975.

A word on the GI50: it is the concentration giving 50% growth inhibition.
